Source: PubChem BioAssay AID330 (DTP/NCI, 2004)
Values joined by “and” are separate entries in the source; they are usually repeats but may differ in a detail not shown here. Equal entries are not always repeated. Toxic doses and inconclusive results are not listed. The calls were made as follows: active = survival T/C of 150% or more; inactive = T/C below 125% in these data.

Test system: P388 leukemia ip, CD2F1 mice, survival T/C
Test: NCI In Vivo Anticancer Drug Screen. Data for tumor model P388 Leukemia (intraperitoneal) in CD2F1 (CDF1) mice
Conditions: endpoint: median survival time, higher = longer survival
In short: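 Mice carrying the transplanted tumor received test compound or vehicle. Survival was recorded in each group, and the value is the treated-group measurement divided by that of the vehicle-treated control group.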

[1] = dose: 50.0 mg/kg/injection, schedule: Q01DX005 (ip), vehicle: saline
[2] = dose: 100.0 mg/kg/injection, schedule: Q01DX005 (ip), vehicle: saline
[3] = dose: 60.0 mg/kg/injection, schedule: Q01DX005 (ip), vehicle: saline with Tween-80
[4] = dose: 120.0 mg/kg/injection, schedule: Q01DX005 (ip), vehicle: saline with Tween-80
[5] = dose: 100.0 mg/kg/injection, schedule: Q01DX009 (ip), vehicle: Klucel (hydroxypropylcellulose) (HPC)
[6] = dose: 200.0 mg/kg/injection, schedule: Q01DX009 (ip), vehicle: Klucel (hydroxypropylcellulose) (HPC)
[7] = dose: 50.0 mg/kg/injection, schedule: Q01DX009 (ip), vehicle: Klucel (hydroxypropylcellulose) (HPC)
[8] = dose: 60.0 mg/kg/injection, schedule: Q01DX005 (ip), vehicle: Klucel (hydroxypropylcellulose) (HPC)
[9] = dose: 120.0 mg/kg/injection, schedule: Q01DX005 (ip), vehicle: Klucel (hydroxypropylcellulose) (HPC)
[10] = dose: 200.0 mg/kg/injection, schedule: Q01DX005 (ip), vehicle: saline

Measured: T/C

CC(C)=CCN=c1ncn(CCC(N)C(=O)O)c2nc[nH]c12 (centres undefined)
inactive: dose: 3.0 mg/kg/injection, schedule: Q01DX009 (ip), vehicle: Klucel (hydroxypropylcellulose) (HPC) 109 % of control | dose: 6.0 mg/kg/injection, schedule: Q01DX009 (ip), vehicle: Klucel (hydroxypropylcellulose) (HPC) 105 % of control | dose: 12.0 mg/kg/injection, schedule: Q01DX009 (ip), vehicle: Klucel (hydroxypropylcellulose) (HPC) 115 % of control | dose: 24.0 mg/kg/injection, schedule: Q01DX009 (ip), vehicle: Klucel (hydroxypropylcellulose) (HPC) 118 % of control | dose: 48.0 mg/kg/injection, schedule: Q01DX009 (ip), vehicle: Klucel (hydroxypropylcellulose) (HPC) 108 % of control

C(CCC[Si]12OCCN(CCO1)CCO2)CC[Si]12OCCN(CCO1)CCO2
inactive: dose: 50.0 mg/kg/injection, schedule: Q01DX005 (ip), vehicle: Klucel (hydroxypropylcellulose) (HPC) 102 % of control | dose: 100.0 mg/kg/injection, schedule: Q01DX005 (ip), vehicle: Klucel (hydroxypropylcellulose) (HPC) 93 % of control | dose: 200.0 mg/kg/injection, schedule: Q01DX005 (ip), vehicle: Klucel (hydroxypropylcellulose) (HPC) 91 % of control

Cc1ccc(-c2c3c(c(-c4ccc(C)cc4)c(-c4ccccc4)c2-c2ccccc2)-c2ccccc2C3)cc1
inactive: dose: 12.5 mg/kg/injection, schedule: Q01DX009 (ip), vehicle: saline with Tween-80 98 % of control | dose: 25.0 mg/kg/injection, schedule: Q01DX009 (ip), vehicle: saline with Tween-80 98 % of control | dose: 50.0 mg/kg/injection, schedule: Q01DX009 (ip), vehicle: saline with Tween-80 99 % of control and 89 % of control

CCOP(=O)(NCCCOC)OCC
inactive: dose: 25.0 mg/kg/injection, schedule: Q01DX005 (ip), vehicle: saline 97 % of control | [1] 100 % of control | [2] 99 % of control

COc1cc(C(c2c(O)c3ccccc3oc2=O)c2c(O)c3ccccc3oc2=O)cc(OC)c1O
inactive: [3] 99 % of control | [4] 111 % of control

Nc1ccc(-c2csc(COc3ccccc3)n2)cc1
inactive: [5] 106 % of control | [6] 103 % of control

Fc1ccc(-c2cc(-c3cccs3)cc(-c3ccccc3)n2)cc1
inactive: [7] 121 % of control | [5] 102 % of control | [6] 100 % of control

CCCCCCCCCCCCCCCCCCOC(=O)C(N)CCCCN (centres undefined)
inactive: dose: 15.0 mg/kg/injection, schedule: Q01DX005 (ip), vehicle: saline 96 % of control | dose: 30.0 mg/kg/injection, schedule: Q01DX005 (ip), vehicle: saline 110 % of control | dose: 60.0 mg/kg/injection, schedule: Q01DX005 (ip), vehicle: saline 109 % of control and 111 % of control

COC(=O)c1nnn(-c2cccc(Cl)c2)c1C(=O)c1ccc(Cl)c(Cl)c1
inactive: [3] 100 % of control | [4] 87 % of control | dose: 240.0 mg/kg/injection, schedule: Q01DX005 (ip), vehicle: saline with Tween-80 88 % of control

C=Cn1c([N+](=O)[O-])cnc1/C=C/c1ccc(C(=O)NC)cc1
inactive: dose: 100.0 mg/kg/injection, schedule: Q04DX002 (ip), vehicle: saline with Tween-80 100 % of control | dose: 200.0 mg/kg/injection, schedule: Q04DX002 (ip), vehicle: saline with Tween-80 102 % of control | dose: 400.0 mg/kg/injection, schedule: Q04DX002 (ip), vehicle: saline with Tween-80 95 % of control

CC1(C)CC(=O)c2ccccc21
inactive: dose: 3.12 mg/kg/injection, schedule: Q01DX005 (ip), vehicle: saline with Tween-80 106 % of control | dose: 6.25 mg/kg/injection, schedule: Q01DX005 (ip), vehicle: saline with Tween-80 103 % of control | dose: 12.5 mg/kg/injection, schedule: Q01DX005 (ip), vehicle: saline with Tween-80 113 % of control | dose: 25.0 mg/kg/injection, schedule: Q01DX005 (ip), vehicle: saline with Tween-80 113 % of control

O=[N+]([O-])c1cc(CN(CCO)CCO)c(O)c2ncccc12
inactive: [3] 104 % of control | [4] 109 % of control

c1ccc2c(c1)ccc1cccnc12
inactive: dose: 50.0 mg/kg/injection, schedule: Q01DX005 (ip), vehicle: saline with Tween-80 93 % of control | dose: 100.0 mg/kg/injection, schedule: Q01DX005 (ip), vehicle: saline with Tween-80 93 % of control | dose: 200.0 mg/kg/injection, schedule: Q01DX005 (ip), vehicle: saline with Tween-80 102 % of control

CC(=O)Oc1ccc2[nH]c(C)cc2c1
inactive: dose: 100.0 mg/kg/injection, schedule: Q01DX001 (ip), vehicle: saline with Tween-80 100 % of control | dose: 200.0 mg/kg/injection, schedule: Q01DX001 (ip), vehicle: saline with Tween-80 98 % of control | dose: 400.0 mg/kg/injection, schedule: Q01DX001 (ip), vehicle: saline with Tween-80 93 % of control | dose: 800.0 mg/kg/injection, schedule: Q01DX001 (ip), vehicle: saline with Tween-80 103 % of control

O=C(c1cccs1)c1ccc(Cl)cc1Cl
inactive: [7] 107 % of control | [5] 103 % of control | [6] 104 % of control

O=C(OC1CCCc2ccccc21)c1ccc(N=Nc2ccccc2)cc1 (centres undefined)
inactive: [3] 95 % of control | [4] 88 % of control

C/C(=N/NC(=O)Cc1ccccc1)C(=NO)/C(C)=N\NC(=O)Cc1ccccc1
inactive: dose: 100.0 mg/kg/injection, schedule: Q04DX002 (ip), vehicle: saline 101 % of control | dose: 200.0 mg/kg/injection, schedule: Q04DX002 (ip), vehicle: saline 108 % of control | dose: 400.0 mg/kg/injection, schedule: Q04DX002 (ip), vehicle: saline 116 % of control

Cc1cccc(Cl)c1NC(=O)CSCCN(C)C
inactive: [8] 106 % of control | [9] 103 % of control

O=NNc1ncccn1
inactive: dose: 3.12 mg/kg/injection, schedule: Q01DX009 (ip), vehicle: water 96 % of control | dose: 6.25 mg/kg/injection, schedule: Q01DX009 (ip), vehicle: water 105 % of control | dose: 12.5 mg/kg/injection, schedule: Q01DX009 (ip), vehicle: water 93 % of control | dose: 25.0 mg/kg/injection, schedule: Q01DX009 (ip), vehicle: water 101 % of control | dose: 50.0 mg/kg/injection, schedule: Q01DX009 (ip), vehicle: water 102 % of control | dose: 100.0 mg/kg/injection, schedule: Q01DX009 (ip), vehicle: water 93 % of control

CC1C=CCC(C)(C)C1 (centres undefined)
inactive: [5] 101 % of control | dose: 100.0 mg/kg/injection, schedule: Q04DX003 (ip), vehicle: saline 88 % of control | [6] 106 % of control | dose: 200.0 mg/kg/injection, schedule: Q04DX003 (ip), vehicle: saline 96 % of control | dose: 400.0 mg/kg/injection, schedule: Q04DX003 (ip), vehicle: saline 92 % of control

O=C(O)/C=N/NP(=O)(Oc1ccccc1)Oc1ccccc1
inactive: dose: 25.0 mg/kg/injection, schedule: Q01DX009 (ip), vehicle: distilled water + Tween-80 99 % of control | dose: 50.0 mg/kg/injection, schedule: Q01DX009 (ip), vehicle: distilled water + Tween-80 100 % of control and 94 % of control | dose: 100.0 mg/kg/injection, schedule: Q01DX009 (ip), vehicle: distilled water + Tween-80 100 % of control and 95 % of control | dose: 200.0 mg/kg/injection, schedule: Q01DX009 (ip), vehicle: distilled water + Tween-80 100 % of control and 97 % of control | dose: 400.0 mg/kg/injection, schedule: Q01DX009 (ip), vehicle: distilled water + Tween-80 100 % of control and 109 % of control

CC(C)(C)C(N)=S=O
inactive: [1] 101 % of control | [2] 106 % of control | [10] 106 % of control

COc1cc(-c2c(C)oc(C)c2C(C)=O)ccc1OCc1ccccc1
inactive: [8] 92 % of control | [9] 97 % of control | dose: 240.0 mg/kg/injection, schedule: Q01DX005 (ip), vehicle: Klucel (hydroxypropylcellulose) (HPC) 91 % of control

O=[N+]([O-])c1ccccc1CSc1ncnc2nc[nH]c12
inactive: dose: 50.0 mg/kg/injection, schedule: Q04DX003 (ip), vehicle: saline with Tween-80 95 % of control | dose: 100.0 mg/kg/injection, schedule: Q01DX009 (ip), vehicle: saline with Tween-80 90 % of control | dose: 100.0 mg/kg/injection, schedule: Q04DX003 (ip), vehicle: saline with Tween-80 109 % of control | dose: 200.0 mg/kg/injection, schedule: Q01DX009 (ip), vehicle: saline with Tween-80 100 % of control | dose: 200.0 mg/kg/injection, schedule: Q04DX003 (ip), vehicle: saline with Tween-80 104 % of control | dose: 400.0 mg/kg/injection, schedule: Q01DX009 (ip), vehicle: saline with Tween-80 118 % of control

C[n+]1cccc2c1-c1c(ccc[n+]1C)C2
inactive: [1] 108 % of control | [2] 105 % of control | [10] 104 % of control
